The values that follow come from paper PMC6234229, “The role of loops B and C in determining the potentiation of GABAA receptors by midazolam” (Pharmacology Research & Perspectives, 2018).

Assay in all cases: GABA concentration-response assay, whole-cell patch clamp, HEK293T
Holding throughout (format): cell-based
What all share (details): GABA Hill fit

The target of assay [1] is T1, α1(H102R)β2γ2 GABAA receptor (Homo sapiens, UniProt P14867+P18507+P47870, H129R).
T1 construct: expressed in transfected cells; host or cells: HEK293T
From the text: (§1) Human (Homo sapiens) GABAA subunits (α1‐6, β2, γ2s) were subcloned into pcDNA3.1+ vectors with a cytomegalovirus (CMV) promoter. The hβ2 and hα3 sequences were humanized rat (Rattus norvegicus) cDNA with amino acid substitutions made to match the human protein sequence. The α1‐3, α5, β2, and γ2s subunits were a generous gift from Neil L. Harrison (Columbia University Medical Center, NY). The α4 subunit was obtained from GenScript (Piscataway, NJ), and the α6 subunit was a generous gift from Robert L. McDonald (Vanderbilt University, TN). All point mutations (listed in Figure 1C) were introduced using the QuikChange Lightening site‐directed mutagenesis kit (Agilent Technologies, Santa Clara, CA) according to the manufacturer's instructions and were confirmed by sequencing (Eurofins MWG Operon, Louisville, KY).
(§2) Human embryonic kidney cells containing the SV40 T‐antigen (HEK293T) were acquired from American Type Culture Collection (ATCC®, Manassas, VA), catalogue number, CRL3216. HEK293T cells were maintained at 37°C and 5% CO2 in Eagle Minimum Essential Medium (MEM) supplemented with 5% fetal bovine serum (Atlanta Biologicals Inc., Flowery Branch, GA), 40 μM L‐glutamine, 100 U/mL penicillin and 0.1 mM streptomycin. Cells were passaged regularly when they reached 70% confluency using trypsin. Cells were not passaged more than 22 times. New cells were revived from frozen stocks at passage 2‐4. Cells used for in vitro electrophysiology experiments were grown on poly‐D‐lysine‐coated glass coverslips (No.2, VWR, Radnor, PA) and transfected with X‐tremeGENE (Roche Diagnostics, Indianapolis, IN) with the desired receptor subunit cDNAs at a 1:1:1 ratio to express αxβ2γ2s receptors (2 μg total cDNA) and with 0.5 μg green fluorescent protein (GFP) as an expression marker. The γ2s incorporation into receptors was tested with zinc inhibition assays regularly.24 Patch clamp experiments were performed on cells at 24‐72 hours post‐transfection. All experiments were performed at 22°C. Experiments consisted of at least five cells recorded per day from at least two transfections across 3‐4 days to control for cell health and transfection efficiency. At least three cells expressing wild‐type receptors were recorded on days that mutant receptors were tested to provide a time‐matched expression control. All reagents were purchased from Sigma‐Aldrich (St. Louis, MO) unless otherwise stated.
(§3) Extracellular solution contained 161 mM NaCl, 3 mM KCl, 1 mM MgCl2, 1.5 mM CaCl2, 10 mM HEPES, and 6 mM D‐glucose, adjusted to pH 7.4 with NaOH (320‐330 mOsm). […] The perfusion system was controlled by protocols written in pClamp 9 (Molecular Devices, LLC., Sunnyvale, CA). Whole‐cell currents were recorded at ‐60 mV, filtered at 100 Hz and sampled at 200 Hz with a MultiClamp 700B amplifier (Molecular Devices, LLC) and DigiData 1322A (Molecular Devices, LLC) digitizer. […] Cells were recorded with the midazolam protocol no more than two times to avoid desensitization and incomplete washout or irreversible modulation.
(§4) Recordings were analyzed using MATLAB (Math Works, Inc., Natick, MA). […] The maximum peak current, EC50 and Hill coefficient were estimated for assays from each cell. When Hill parameters are estimated from whole‐cell recordings, the changes in the parameters across receptor conditions can be ascribed to the following changes in receptor physiology. Changes in maximum current can be due to changes in the single‐channel conductance or the rate of desensitization. Changes in cell surface receptor expression can cause minor changes in maximum current, but are unlikely to occur in the time course of our experimental protocol. […] More often minor changes in the Hill coefficient are attributed to the altered homogeneity in the receptor population expressed by the HEK293T cell. For example, a shallower Hill coefficient could be caused by a shift in the population of receptors from mostly αβγ receptors to a combination of both αβ and αβγ receptors.

Assay [2] deals with T2, α1(S206I)β2γ2 GABAA receptor (Homo sapiens, UniProt P14867+P18507+P47870, S233I).
T2 construct: expressed in transfected cells; host or cells: HEK293T
Excerpt: as §1, §2, §3, §4

The target of assay [3] is T3, α5(H105R)β2γ2 GABAA receptor (Homo sapiens, UniProt P18507+P31644+P47870, H136R).
T3 construct: expressed in transfected cells; host or cells: HEK293T
Excerpt: as §1, §2, §3, §4

In assay [4] the target is T4, α3(H126R)β2γ2 GABAA receptor (Homo sapiens, UniProt P18507+P34903+P47870, H154R).
T4 construct: expressed in transfected cells; host or cells: HEK293T
Excerpt: as §1, §2, §3, §4

The target of assay [5] is T5, α1β2γ2 GABAA receptor (Homo sapiens, UniProt P14867+P18507+P47870).
T5 construct: expressed in transfected cells; host or cells: HEK293T
Excerpt: as §1, §2, §3, §4

Assay [6] concerns the target T6, α6β2γ2 GABAA receptor (Homo sapiens, UniProt P18507+P47870+Q16445).
T6 construct: expressed in transfected cells; host or cells: HEK293T
Excerpt: as §1, §2, §3, §4

In assay [7] the target is T7, α2(S205I)β2γ2 GABAA receptor (Homo sapiens, UniProt P18507+P47869+P47870, S233I).
T7 construct: expressed in transfected cells; host or cells: HEK293T
Excerpt: as §1, §2, §3, §4

Assay [8] has as its target T8, α2β2γ2 GABAA receptor (Homo sapiens, UniProt P18507+P47869+P47870).
T8 construct: expressed in transfected cells; host or cells: HEK293T
Excerpt: as §1, §2, §3, §4

Assay [9] deals with T9, α4(P161T)β2γ2 GABAA receptor (Homo sapiens, UniProt P18507+P47870+P48169, P196T).
T9 construct: expressed in transfected cells; host or cells: HEK293T
Excerpt: as §1, §2, §3, §4

Assay [10] deals with T10, α3(S230I)β2γ2 GABAA receptor (Homo sapiens, UniProt P18507+P34903+P47870, S258I).
T10 construct: expressed in transfected cells; host or cells: HEK293T
Excerpt: as §1, §2, §3, §4

For assay [11], the target named is T11, α4β2γ2 GABAA receptor (Homo sapiens, UniProt P18507+P47870+P48169).
T11 construct: expressed in transfected cells; host or cells: HEK293T
Excerpt: as §1, §2, §3, §4

Assay [12] concerns the target T12, α3(T187P)β2γ2 GABAA receptor (Homo sapiens, UniProt P18507+P34903+P47870, T215P).
T12 construct: expressed in transfected cells; host or cells: HEK293T
Excerpt: as §1, §2, §3, §4

Assay [13] concerns the target T13, α1(T163P)β2γ2 GABAA receptor (Homo sapiens, UniProt P14867+P18507+P47870, T190P).
T13 construct: expressed in transfected cells; host or cells: HEK293T
Excerpt: as §1, §2, §3, §4

As usually defined, the Hill coefficient is the slope factor of the fitted curve.

T8 sequence (P47869 29-451): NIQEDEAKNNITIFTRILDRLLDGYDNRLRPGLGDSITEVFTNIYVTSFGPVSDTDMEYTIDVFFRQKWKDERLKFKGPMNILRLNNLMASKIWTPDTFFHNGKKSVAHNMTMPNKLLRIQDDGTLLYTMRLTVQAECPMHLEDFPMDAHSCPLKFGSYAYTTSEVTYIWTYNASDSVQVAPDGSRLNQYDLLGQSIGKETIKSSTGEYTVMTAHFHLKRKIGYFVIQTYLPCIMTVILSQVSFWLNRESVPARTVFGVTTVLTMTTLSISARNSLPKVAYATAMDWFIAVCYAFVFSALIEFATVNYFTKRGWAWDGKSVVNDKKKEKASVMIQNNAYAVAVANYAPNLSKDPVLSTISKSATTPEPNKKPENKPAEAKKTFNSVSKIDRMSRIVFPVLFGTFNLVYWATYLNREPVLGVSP
T8 sequence (P47870 25-512 limits assumed): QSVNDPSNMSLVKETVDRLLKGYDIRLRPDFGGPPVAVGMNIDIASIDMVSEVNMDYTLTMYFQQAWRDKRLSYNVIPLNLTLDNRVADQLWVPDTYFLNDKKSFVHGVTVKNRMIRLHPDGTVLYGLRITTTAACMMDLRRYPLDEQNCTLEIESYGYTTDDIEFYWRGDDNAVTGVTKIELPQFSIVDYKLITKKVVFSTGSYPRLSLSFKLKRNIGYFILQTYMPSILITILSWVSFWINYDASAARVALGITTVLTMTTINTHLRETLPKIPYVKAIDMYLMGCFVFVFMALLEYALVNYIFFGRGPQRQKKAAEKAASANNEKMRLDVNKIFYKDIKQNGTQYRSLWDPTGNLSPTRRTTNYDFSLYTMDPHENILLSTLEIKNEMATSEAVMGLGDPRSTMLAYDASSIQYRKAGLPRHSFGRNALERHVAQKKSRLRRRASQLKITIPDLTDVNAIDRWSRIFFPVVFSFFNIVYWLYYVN
T8 sequence (P18507 40-467 isoform P18507-1 limits assumed): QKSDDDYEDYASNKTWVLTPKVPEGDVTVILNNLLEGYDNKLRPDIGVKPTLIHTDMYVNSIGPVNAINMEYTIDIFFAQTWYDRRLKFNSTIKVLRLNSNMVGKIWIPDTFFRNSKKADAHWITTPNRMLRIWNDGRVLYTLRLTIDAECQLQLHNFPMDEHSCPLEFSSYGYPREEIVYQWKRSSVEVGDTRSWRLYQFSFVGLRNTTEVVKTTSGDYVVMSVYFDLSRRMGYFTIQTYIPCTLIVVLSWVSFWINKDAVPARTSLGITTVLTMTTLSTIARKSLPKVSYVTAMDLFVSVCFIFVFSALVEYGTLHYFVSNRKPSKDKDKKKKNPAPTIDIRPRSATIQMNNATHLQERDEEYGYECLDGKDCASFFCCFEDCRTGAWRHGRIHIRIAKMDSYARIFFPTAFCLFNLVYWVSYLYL
T2 sequence (P14867 28-456 S233I): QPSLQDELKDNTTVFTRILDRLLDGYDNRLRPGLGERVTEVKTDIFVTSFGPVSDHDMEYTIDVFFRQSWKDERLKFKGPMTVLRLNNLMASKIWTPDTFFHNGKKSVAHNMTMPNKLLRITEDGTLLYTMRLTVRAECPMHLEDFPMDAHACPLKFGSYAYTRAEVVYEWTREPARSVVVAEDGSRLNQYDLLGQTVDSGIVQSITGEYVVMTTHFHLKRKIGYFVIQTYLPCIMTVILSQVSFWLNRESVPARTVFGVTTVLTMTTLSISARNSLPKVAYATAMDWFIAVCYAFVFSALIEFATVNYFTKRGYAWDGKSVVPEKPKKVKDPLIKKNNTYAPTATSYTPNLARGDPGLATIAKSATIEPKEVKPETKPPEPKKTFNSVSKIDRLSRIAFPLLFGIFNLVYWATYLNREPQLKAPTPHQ
T2 sequence (P47870 25-512 limits assumed, stated change not applied): as the sequence (P47870 25-512 limits assumed) above
T2 sequence (P18507 40-467 isoform P18507-1 limits assumed, stated change not applied): as the sequence (P18507 40-467 isoform P18507-1 limits assumed) above
T4 sequence (P34903 29-492 H154R): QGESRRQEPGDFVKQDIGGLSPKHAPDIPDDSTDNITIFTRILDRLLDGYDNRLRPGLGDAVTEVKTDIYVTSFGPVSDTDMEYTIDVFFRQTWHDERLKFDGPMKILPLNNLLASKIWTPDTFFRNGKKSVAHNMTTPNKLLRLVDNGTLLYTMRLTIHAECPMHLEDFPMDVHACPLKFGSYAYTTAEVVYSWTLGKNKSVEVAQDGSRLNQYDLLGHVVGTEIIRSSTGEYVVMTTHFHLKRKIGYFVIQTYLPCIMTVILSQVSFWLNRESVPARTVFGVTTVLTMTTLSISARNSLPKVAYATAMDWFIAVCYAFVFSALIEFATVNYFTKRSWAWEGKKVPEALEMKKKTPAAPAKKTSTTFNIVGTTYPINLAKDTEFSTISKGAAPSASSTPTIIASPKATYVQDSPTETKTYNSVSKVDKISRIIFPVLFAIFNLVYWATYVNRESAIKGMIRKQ
T4 sequence (P47870 25-512 limits assumed): as the sequence (P47870 25-512 limits assumed) above
T4 sequence (P18507 40-467 isoform P18507-1 limits assumed, stated change not applied): as the sequence (P18507 40-467 isoform P18507-1 limits assumed) above

For the compound `NCCCC(=O)O` [GABA, γ‐aminobutyric acid], the Hill coefficient in assay [1] came to 1.255 ± 0.097; in assay [2] it was 1.444 ± 0.104; in assay [3] it was 1.269 ± 0.084; in assay [4], 1.519 ± 0.88; in [5], 1.400 ± 0.102; in assay [6] it was 1.405 ± 0.074. The Hill coefficient in assay [7] came out at 1.452 ± 0.151; in [8], 1.581 ± 0.074; in assay [10], 1.796; in [11], 1.113 ± 0.063; in assay [13] it was 1.230 ± 0.049. Besides, the “Max Current (pA)” value in [1] is listed as -3175 ± 444.3 pA; in assay [2] it was -5007 ± 470.7 pA; in assay [3], -6799 ± 919.2 pA; in [4], -3597 ± 343.6 pA; in assay [5] it was -4218 ± 601.6 pA; in [6] it was -3276 ± 578.1 pA. Further, the “Max Current (pA)” value is recorded as -7835 pA in assay [7]; -3326 ± 356.7 pA in assay [8]; -4487 ± 397.2 pA in [9]; -1724 ± 286.1 pA in assay [10]; -3039 ± 347.3 pA in [11]; -1993 ± 189.7 pA in assay [12]. For the same compound, the “Max Current (pA)” value in [13] is -2449 ± 376.1 pA.
